Earlier results on one substance are cited in EP0076676B1, “Process for using endorphins as antitumour agents” (TNI PHARMACEUTICALS, INC., priority 1981, dated 1986).

The data set deals with phenylalanyl-t RNA synthetase. The conditions noted are these: observed by Laidow et al, J.B.C. 255 (1980).

beta-endorphin: the “inhibition of phenylalanyl-t RNA synthetase” value is “inhibit”.
